In patent US20180296630A1, “METHODS AND COMPOSITIONS FOR PREVENTING OR TREATING OPHTHALMIC CONDITIONS” (Stealth BioTherapeutics Corp, priority 2012, published 2018):

Legend:
[1] = system: caspase-3 in HRECs; experiment: Caspase-3 protein expression in high glucose-treated HRECs (Western blot); type: cell-based, human; settings: 30 mM glucose co-treatment; 24 h and 48 h; p<0.05
Procedure: The level of cleaved caspase-3 protein expression was measured by Western blot (FIG. 5A). When HRECs were exposed to 30 mM glucose for 24 h and 48 h, the level of caspase-3 expression increased dramatically.

[2] = system: Trx2 in HRECs; experiment: Trx2 expression in high glucose-treated HRECs (real-time PCR, Western blot); type: cell-based, human; settings: 30 mM glucose co-treatment; 24 h and 48 h
Procedure: D-Arg-2′,6′-Dmt-Lys-Phe-NH2 increased the expression of Trx2 in the high glucose-treated HRECs. […] The mRNA expression level of Trx2 was measured by quantitative real-time PCR. Relative mRNA levels of Trx2 were normalized by 18S mRNA levels (* p<0.05 vs. the normal glucose medium group and the 30 mM high glucose treated group). Three independent samples were used for each time point.

[3] = system: GTM3 cells; experiment: ROS production, sustained oxidative injury by H2O2, GTM3 cells; type: cell-based, human; settings: then 200 μM H2O2 24 h
Procedure: The effects of D-Arg-2′,6′-Dmt-Lys-Phe-NH2 on sustained oxidative injury of GTM and HTM cells was examined. Cells were pre-treated with 10^−6, 10^−7, 10^−8M of D-Arg-2′,6′-Dmt-Lys-Phe-NH2 for 1 h, and then incubated with 200 μM H2O2 for 24 h to investigate the protective effect of D-Arg-2′,6′-Dmt-Lys-Phe-NH2 in sustained oxidative stress.

[4] = system: GTM cells; experiment: Morphology of GTM cells exposed to H2O2 (inverted phase contrast microscopy); type: cell-based, human; settings: peptide prior to H2O2, concentration-dependent and time-dependent
Description: The morphology of GTM cells was investigated when those cells were exposed to D-Arg-2′,6′-Dmt-Lys-Phe-NH2 prior to administration of hydrogen peroxide. […] That is, hydrogen peroxide mediated cell loss and rounding was diminished in cells exposed to D-Arg-2′,6′-Dmt-Lys-Phe-NH2 peptide. The mitochondrial membrane potential (Δψm) of HTM and GTM cells was also investigated when those cells were exposed to D-Arg-2′,6′-Dmt-Lys-Phe-NH2 prior to administration of hydrogen peroxide. The mitochondrial membrane potential was measured using confocal microscopy of cells labeled with tetramethylrhodamine methyl ester (TMRM, 500 nM×30 min) (FIG. 19-21). […] As such, D-Arg-2′,6′-Dmt-Lys-Phe-NH2 provides a protective effect against oxidative stress in GTM cells.

[5] = system: GTM and HTM cells; experiment: Cell apoptosis induced by H2O2 (percentage of cells in Q2+Q4); type: cell-based, human; settings: FIG. 38
Description: FIG. 38A-38D are graphs showing cell apoptosis of control and D-Arg-2′,6′-Dmt-Lys-Phe-NH2(SS-31)-treated groups valued by percentage of cells in the Q2+Q4 quadrant.
The percentage of intracellular ROS production compared to GTM control in GTM H2O2, D-Arg-2′,6′-Dmt-Lys-Phe-NH2 10^−6M, D-Arg-2′,6′-Dmt-Lys-Phe-NH2 10^−7M, D-Arg-2′,6′-Dmt-Lys-Phe-NH2 10^−8M groups were 146.0±2.27%, 84.5±8.75%, 102.0±5.69%, 133.0±5.17% respectively (n=3); the HTM groups were 153.0±3.46%, 79±2.39%, 91.8±3.49%, 129.0±8.24% respectively (n=4). P<0.001 GTM and HTM H2O2 Group compared to control; *** means P<0.001 compared to GTM H2O2 group; ▴ ▴ ▴ Means P<0.001 compared to HTM H2O2 group; ▴ ▴ means P<0.01 compared to HTM H2O2 group.

[6] = system: STZ-treated mice; experiment: Spatial frequency (SPF) threshold in STZ-treated / diabetic-diet mice; type: in vivo
Procedure: Subjects were maintained on a normal diet (ND) or diabetic diet (DD) for up to 32 weeks, and were administered D-Arg-2′,6′-Dmt-Lys-Phe-NH2 or control vehicle with or without streptozotocin. Results are shown in FIG. 41, with response values are averaged for each eye.

[7] = system: streptozocin diabetic rats; experiment: Quantitative MRI of the retina in diabetic rats; type: in vivo, SD rats
Procedure: 7, issue 1. Glycated hemoglobin and retinal thickness ex vivo (histology) will also be measured in control, diabetic groups and D-Arg-2′,6′-Dmt-Lys-Phe-NH2 treatment groups.
Diabetes is induced with intraperitoneal injection of streptozocin (60 mg/kg) within 5 minutes of its preparation in 0.01 M citrate buffer (pH 4.5) in male SD rats with body weights of approximately 200 g after overnight fast. Diabetes is verified 3 days later by the presence of plasma hyperglycemia (>300 mg/dl) and elevated urine volume (more than 60 ml/d) in nonfasted rats. Rat body weight and blood glucose levels are monitored weekly. Subtherapeutic levels of insulin (0-2 U neutral protamine Hagedorn insulin administered subcutaneously daily) is administered to maintain blood glucose levels between 450 and 550 mg/dl without urine ketones. Glycated hemoglobin is measured after 2 months of diabetes (Glyco-Tek affinity columns, kit 5351; Helena Laboratories, Beaumont, Tex.).
Nine month old diabetic rats are treated with D-Arg-2′,6′-Dmt-Lys-Phe-NH2 by injection, either intraperitoneal (IP) or subcutaneous (SC), with 1, 5, or 10 mg/kg D-Arg-2′,6′-Dmt-Lys-Phe-NH2. Injections are once/day. After 7 days of treatment, the retinas of the rats in the treatment and control groups are evaluated.
Male SD rats are examined by MRI by the methods of Berkowitz et al. Central retinal thickness at 2, 3, 4, 6, and 9 months after induction of diabetes is measured, and in age-matched non-diabetic controls. At day 7 after D-Arg-2′,6′-Dmt-Lys-Phe-NH2 treatment, rats are again evaluated via MRI according to the methods of Berkowitz et al.

Question: Which caspase-3 protein level [1] does the source give for D-Arg-2′,6′-Dmt-Lys-Phe-NH2 here?
Answer: marked decrease

Question: And the “expression of Trx2” value [2]?
Answer: increased

Question: And the “ROS Production” value ([3]; 0.01 μM pre-treatment 1 h)?
Answer: 133.70 ± 3.24 %

Question: What about the “ROS Production” value ([3]; 0.1 μM pre-treatment 1 h) of the same substance?
Answer: 68.91 ± 8.62 %

Question: And the “ROS Production” value ([3]; 1 μM pre-treatment 1 h)?
Answer: 47.40 ± 1.81 %

Question: What about the “hydrogen peroxide-mediated morphological changes (cell loss and rounding)” value [4] of the same substance?
Answer: protects cells from hydrogen peroxide-mediated morphological changes

Question: And the “amount of cell apoptosis induced by H2O2” value [5]?
Answer: reduced

Question: And the “rescue of visual impairment by eyedrop versus systemic administration” value ([6]; STZ-treated animals maintained on a diabetic diet, eyedrop)?
Answer: one month sooner

Question: And the “time by which the visual deficit was fully rescued” value ([6]; STZ-treated animals, systemic treatment initiated at 12 weeks)?
Answer: ≤ 24 weeks

Question: What about the “time by which rescue was shown” value ([6]; animals on a diabetic diet alone) of the same substance?
Answer: ≤ 30 weeks

Question: And the “time by which the visual deficit was fully restored” value ([6]; animals on a diabetic diet and administered STZ)?
Answer: ≤ 24 weeks

Question: And the “visual impairment (spatial frequency threshold)” value ([6]; animals with metabolic dysfunction)?
Answer: rescued

Question: And the Apparent diffusion coefficient ([7]; 1 mg/kg IP or SC injection)?
Answer: N to N+

Question: And the Intraretinal water content ([7]; 1 mg/kg IP or SC injection)?
Answer: N to N+

Question: What about the Retinal thickness ([7]; 1 mg/kg IP or SC injection) of the same substance?
Answer: N to N+

Question: And the Apparent diffusion coefficient ([7]; 5 mg/kg IP or SC injection)?
Answer: N to N+

Question: And the Intraretinal water content ([7]; 5 mg/kg IP or SC injection)?
Answer: N to N+

Question: What about the Retinal thickness ([7]; 5 mg/kg IP or SC injection) of the same substance?
Answer: N to N+

Question: What about the Apparent diffusion coefficient ([7]; 10 mg/kg IP or SC injection) of the same substance?
Answer: N to N+

Question: What about the Intraretinal water content ([7]; 10 mg/kg IP or SC injection) of the same substance?
Answer: N to N+

Question: What about the Retinal thickness ([7]; 10 mg/kg IP or SC injection) of the same substance?
Answer: N to N+
